Where two headings read alike, the source gives them in different places.
Legend:
[1] = system: α-2(a)-(c) adrenergic receptor subtypes; experiment: α-2 receptor subtype preference, α-2(a)-(c) (Table 1); assay type: binding
eye [2] = settings: for effectiveness at reducing eye redness: both general eye redness and eye redness induced by drug administration
Text: Redness reduction is on a scale from 0.00 to 4.00 with 0.00 denoting the greatest redness reduction and 4.00 denoting no redness reduction. Whitening is on a scale from 0.00 to 4.00 with 0.00 denoting pearly white, glistening color and 4.00 denoting no whitening effect.

Log P (Table 1) = assay type: physicochemical
[3] = system: α-2 over α-1 adrenergic receptors
[4] = system: conjunctival hyperemia / whiteness of eye; settings: for subjects reporting reduced hyperemia and increased whiteness in the treated eye: […] brimonidine, one eye, 8 human subjects
Method: (§1) The subjects were administered with the drug in one eye and then asked to assess themselves in the mirror to see if they perceived a difference in conjunctival hyperemia between eyes. The assessments were made 5 minutes after the administration and 4 hours after the administration. After the four hours assessment, the drug was re-administered.

nasal congestion = system: nasal congestion
Method: as §1

eye [5] = settings: […] brimonidine
Method: FIG. 13 is a photograph of both eyes of the person before the drug was administered. FIG. 14A is a close-up photograph of the right eye and FIG. 14B is a close-up photograph of the left eye.

[6] = with or without redness induced by drug administration

With guanfacine the “α-2(a)-(c)” value [1] was 2(a) high, the “effectiveness at reducing eye redness” value (eye [2]) was “highly effective” and the “Other (pH dependence of effect)” value (eye [2]; in vivo) was “>effect hi pH”. The “Redness Reduction” value (eye [2]; in vivo) was 0.00 and the “further whitening eyes beyond their usual color” value (eye [2]; [6]) was “highly effective”.
For Cc1cccc([C@H](C)c2cnc[nH]2)c1C [Dexmedetomidine, dexmedetomidine], the “α-2(a)-(c)” value [1] was “general”, the logP (Log P (Table 1)) was 3 and the “effectiveness at reducing eye redness” value (eye [2]) was “highly effective”. For the same compound, the “further whitening eyes beyond their usual color” value (eye [2]; [6]) was “generally ineffective” and the Selectivity [3] was 1660.
For Brc1c(NC2=NCCN2)ccc2nccnc12 [Brimonidine, brimonidine], the “α-2(a)-(c)” value [1] was “general”, the logP (Log P (Table 1)) was 1 and the “subjects reporting reduced hyperemia and increased whiteness in the treated eye” value ([4]; 5 min assessment) was “eight of eight”. The “subjects reporting reduced hyperemia and increased whiteness in the treated eye” value ([4]; four hour assessment) was “eight of eight”, the “effect on redness and whiteness of eyes” value ([4]; low dose ([…]) brimonidine, Example 3 conclusion) was “significant reduction of redness and increase of whiteness” and the “subjects reporting reduced nasal congestion in the nostril on the same side as the treated eye” value (nasal congestion; […] brimonidine, one eye, four hour assessment, 8 human subjects) was “six of eight”. For the same compound, the “effect on nasal congestion” value (nasal congestion; in several subjects, nostril on the same side as the treated eye, Example 3 conclusion) was “reducing nasal congestion”, the “cosmetic whitening of an eye” value (eye [5]; right eye, person with healthy eyes, left eye untreated) was “noticeably cosmetically whitened” and the “effect on redness and whiteness of an eye” value (eye [5]; child patient) was “significant reduction of redness and increase of whiteness”. The “effect on redness and whiteness of an eye” value (eye [5]; patient with glaucoma receiving Lumigan (bimatoprost 0.03%)) was “significant reduction of redness and increase of whiteness”, the “further whitening eyes beyond their usual color” value (eye [2]; after redness inducing drug administration) was “general ineffectiveness” and the “effectiveness at reducing eye redness” value (eye [2]) was “highly effective”. For the same compound, the “Other (pH dependence of effect)” value (eye [2]; in vivo) was “>effect lo pH”.
For Oc1ccc2c(c1)C(Cc1c[nH]cn1)CC2 (stereo not shown) [Fadolmidine, fadolmidine], the “α-2(a)-(c)” value [1] was “general” and the “Log P” value (Log P (Table 1)) was 2.16.
